The values below come from US8431567B2 (Abbott GmbH & Co. KG, priority 2006, dated 2013).

SMILES strings stand for the structures. Where a name gives a salt, the structure may show the parent alone.

This assay deals with T1, human vasopressin V1b receptor (Homo sapiens, UniProt P47901).
T1 construct: expressed in transfected cells; host or cells: CHO-K1 (cell line hV1b_3H2_CHO), membrane preparation
T1 sequence (P47901 1-424): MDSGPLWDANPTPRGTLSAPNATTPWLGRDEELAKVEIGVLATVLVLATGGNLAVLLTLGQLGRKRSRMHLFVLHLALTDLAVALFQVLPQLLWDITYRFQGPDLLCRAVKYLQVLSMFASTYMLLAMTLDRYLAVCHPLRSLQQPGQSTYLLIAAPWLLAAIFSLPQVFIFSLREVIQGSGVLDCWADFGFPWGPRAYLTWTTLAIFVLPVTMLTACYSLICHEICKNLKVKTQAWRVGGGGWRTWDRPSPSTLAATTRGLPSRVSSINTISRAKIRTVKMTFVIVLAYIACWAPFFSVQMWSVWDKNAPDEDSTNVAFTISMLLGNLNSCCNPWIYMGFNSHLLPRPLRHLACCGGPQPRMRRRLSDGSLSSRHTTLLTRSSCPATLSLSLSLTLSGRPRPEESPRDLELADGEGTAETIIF
Put plainly: Vasopressin V1b receptor binding test. The following applies: membranes of CHO-K1 cells, displacement of 1.5 nM 3H-AVP. As to the method: • Vasopressin V1b Receptor Binding Test: • Substances:
The test substances were dissolved at a concentration of 10^−2 M in DMSO and diluted further in DMSO to 5×10^−4 M to 5×10^−9 M. These DMSO solutions were diluted 1:10 with test buffer. The concentration of substance was again diluted 1:5 in the test preparation.
The membrane pellet was homogenized and centrifuged again as described, and then taken up in 50 mM Tris-HCl, pH 7.4, homogenized and, frozen in aliquots, stored at −190° C. in liquid nitrogen.
The incubation buffer was: 50 mM Tris, 10 mM MgCl2, 0.1% BSA, pH 7.4. […] The nonspecific binding was determined with 1 μM AVP (Bachem #H1780). All determinations were performed in triplicate. After incubation (60 minutes at room temperature), the free radioligand was filtered off by vacuum filtration (Skatron cell harvester 7000) on Whatman GF/B glass-fibre filter mats and the filters were transferred to scintillation vessels. Liquid scintillation measurement was performed in a Tricarb instrument, Model 2000 or 2200CA (Packard). Conversion of the measured cpm to dpm was performed with the aid of a standard quench series.
The binding parameters were calculated by nonlinear regression in SAS.
For the compounds according to the invention, the affinities for the human vasopressin receptor V1b were measured according to the above test and the affinity constant (Ki) was determined.
One may read the Ki as a measure of affinity in units of concentration, obtained from inhibition or displacement. `CCOc1ccccc1C1(N2CCN(c3ccncc3)CC2)C(=O)N(S(=O)(=O)c2ccc([N+](=O)[O-])cc2OC)c2ccc(C#N)cc21` (racemic) [Example 91, (±)-5-Cyano-3-(2-ethoxyphenyl)-1-(2-methoxy-4-nitro-benzenesulphonyl)-3-(4-pyridin-4-yl-piperazin-1-yl)-2,3-dihydro-1H-indol-2-one]: the Ki lay in the range of 50 to 500 nM.
Regarding `COc1ccc(S(=O)(=O)N2C(=O)C(c3ccccc3OC)(N3CCN(c4ccncc4)CC3)c3ccc(C)cc32)c(OC)c1` (stereo not shown) [Example 23, 1-(2,4-Dimethoxy-benzenesulphonyl)-3-(2-methoxyphenyl)-6-methyl-3-(4-pyridin-4-yl-piperazin-1-yl)-1,3-dihydro-indol-2-one], the Ki fell in the range of 50 to 500 nM.
The result for `CCOc1ccccc1C1(N2CCN(C3CCN(C)CC3)CC2)C(=O)N(S(=O)(=O)c2ccc(OC)cc2OC)c2ccc(C#N)cc21` (racemic) [Example 76, (±)-5-Cyano-1-(2,4-dimethoxy-benzenesulphonyl)-3-(2-ethoxyphenyl)-3-[4-(1-methyl-piperidin-4-yl)-piperazin-1-yl]-2,3-dihydro-1H-indol-2-one] reads 50 to 500 nM; that for `CCOc1ccc(S(=O)(=O)N2C(=O)C(c3ccccc3OCC)(N3CCN(c4ccncc4)CC3)c3cc(C#N)ccc32)cc1` (racemic) [Example 89, (±)-5-Cyano-1-(4-ethoxy-benzenesulphonyl)-3-(2-ethoxyphenyl)-3-(4-pyridin-4-yl-piperazin-1-yl)-2,3-dihydro-1H-indol-2-one], 50 to 500 nM; that for `CCOc1ccccc1C1(N2CCN(c3ccncc3)CC2)C(=O)N(S(=O)(=O)c2ccc(OC)cc2OC)c2ccc(C#N)cc21` (stereo not shown) [Example 10, 5-Cyano-1-(2,4-dimethoxy-benzenesulphonyl)-3-(2-ethoxyphenyl)-3-(4-pyridin-4-yl-piperazin-1-yl)-2,3-dihydro-1H-indol-2-one], below 50 nM.
The result for `COc1ccc(S(=O)(=O)N2C(=O)C(c3cccc(OC)c3OC)(N3CCN(c4ccncc4)CC3)c3cc(Cl)ccc32)c(OC)c1` (stereo not shown) [Example 31, 5-Chloro-1-(2,4-dimethoxy-benzenesulphonyl)-3-(2,3-dimethoxyphenyl)-3-(4-pyridin-4-yl-piperazin-1-yl)-1,3-dihydro-indol-2-one, HCl salt] reads below 50 nM; that for `COc1ccc(S(=O)(=O)N2C(=O)C(c3cc(OC)ccc3OC)(N3CCN(c4ccncc4)CC3)c3cc(C#N)ccc32)cc1` (stereo not shown) [Example 63, 5-Cyano-3-(2,5-dimethoxyphenyl)-1-(4-methoxy-benzenesulphonyl)-3-(4-pyridin-4-yl-piperazin-1-yl)-2,3-dihydro-1H-indol-2-one], below 50 nM.
The result for `COc1ccc(S(=O)(=O)N2C(=O)C(c3cc(CN(C)C)ccc3OC)(N3CCN(c4ccncc4)CC3)c3cc(Cl)ccc32)c(OC)c1` (stereo not shown) [Example 25, 5-Chloro-1-(2,4-dimethoxy-benzenesulphonyl)-3-(5-dimethylaminomethyl-2-methoxyphenyl)-3-(4-pyridin-4-yl-piperazin-1-yl)-1,3-dihydro-indol-2-one] reads 50 to 500 nM; that for `COc1ccccc1C1(N2CCN(c3ccncc3)CC2)C(=O)N(S(=O)(=O)c2ccccc2OC)c2ccc(Cl)cc21` (stereo not shown) [Example 5, 5-Chloro-1-(2-methoxy-benzenesulphonyl)-3-(2-methoxyphenyl)-3-(4-pyridin-4-yl-piperazin-1-yl)-1,3-dihydro-indol-2-one], below 50 nM; that for `CCOc1ccccc1C1(N2CCN(c3ccncc3)CC2)C(=O)N(S(=O)(=O)c2cccc(N)c2)c2ccc(C#N)cc21` (stereo not shown) [Example 48, 5-Cyano-1-(3-amino-benzenesulphonyl)-3-(2-ethoxyphenyl)-3-(4-pyridin-4-yl-piperazin-1-yl)-2,3-dihydro-1H-indol-2-one], 50 to 500 nM.
In the case of `CCOc1ccc(CC)cc1C1(N2CCN(c3ccnc(C(C)C)c3)CC2)C(=O)N(S(=O)(=O)c2ccc(OC)cc2OC)c2ccc(C#N)cc21` (racemic) [Example 105, (±)-5-Cyano-1-(2,4-dimethoxy-benzenesulphonyl)-3-(2-ethoxy-5-ethyl-phenyl)-3-[4-(2-isopropyl-pyridin-4-yl)-piperazin-1-yl]-2,3-dihydro-1H-indol-2-one], the Ki was below 50 nM.
Consider `CCOc1ccccc1C1(N2CCN(c3ccncc3)CC2)C(=O)N(S(=O)(=O)c2ccc(C)cc2OC)c2ccc(C#N)cc21` (stereo not shown) [Example 9, 5-Cyano-3-(2-ethoxyphenyl)-1-(2-methoxy-4-methyl-benzenesulphonyl)-3-(4-pyridin-4-yl-piperazin-1-yl)-2,3-dihydro-1 H-indol-2-one], for which the Ki was 50 to 500 nM.
The result for `COc1ccc(S(=O)(=O)N2C(=O)C(c3ccccc3OC)(N3C[C@H]4C[C@@H]3CN4c3ccncc3)c3cc(Cl)ccc32)c(OC)c1` (stereo partly drawn) [Example 27, 5-Chloro-1-(2,4-dimethoxy-benzenesulphonyl)-3-(2-methoxyphenyl)-3-((1R,4R)-5-pyridin-4-yl-2,5-diaza-bicyclo[2.2.1]hept-2-yl)-1,3-dihydro-indol-2-one] reads 50 to 500 nM; that for `CCOc1ccc(OC)cc1C1(N2CCN(c3ccncc3)CC2)C(=O)N(S(=O)(=O)c2ccc(C#N)cc2)c2ccc(C#N)cc21` (stereo not shown) [Example 61, 5-Cyano-1-(4-cyano-benzenesulphonyl)-3-(2-ethoxy-5-methoxyphenyl)-3-(4-pyridin-4-yl-piperazin-1-yl)-2,3-dihydro-1H-indol-2-one], 50 to 500 nM; that for `CCOc1ccc(OC)cc1C1(N2CCCN(c3ccncc3)CC2)C(=O)N(S(=O)(=O)c2ccc(OC)cc2OC)c2ccc(C#N)cc21` (stereo not shown) [Example 60, 5-Cyano-1-(2,4-dimethoxy-benzenesulphonyl)-3-(2-ethoxy-5-methoxyphenyl)-3-(4-pyridin-4-yl-[1.4]diazepan-1-yl)-2,3-dihydro-1H-indol-2-one], below 50 nM.
The result for `CCOc1cc(F)ccc1C1(N2CCN(c3ccncc3)CC2)C(=O)N(S(=O)(=O)c2ccc(OC)cc2OC)c2ccc(C#N)cc21` (stereo not shown) [Example 57, 5-Cyano-1-(2,4-dimethoxy-benzenesulphonyl)-3-(2-ethoxy-4-fluorophenyl)-3-(4-pyridin-4-yl-piperazin-1-yl)-2,3-dihydro-1H-indol-2-one] reads below 50 nM.
In turn, `CCOc1ccccc1C1(N2CCN(c3ccncc3)CC2)C(=O)N(S(=O)(=O)c2ccc(F)cc2F)c2ccc(C#N)cc21` (racemic) [Example 72, (±)-5-Cyano-1-(2,4-difluoro-benzenesulphonyl)-3-(2-ethoxyphenyl)-3-(4-pyridin-4-yl-piperazin-1-yl)-2,3-dihydro-1H-indol-2-one trifluoroacetate] showed a Ki of 50 to 500 nM.
Regarding `CCOc1ccc(OC)cc1C1(N2CCCN(c3ccnc(C)c3)CC2)C(=O)N(S(=O)(=O)c2ccc(OC)cc2OC)c2ccc(C#N)cc21` (racemic) [Example 95, (±)-5-Cyano-1-(2,4-dimethoxy-benzenesulphonyl)-3-(2-ethoxy-5-methoxyphenyl)-3-[4-(2-methyl-pyridin-4-yl)-[1.4]diazepan-1-yl]-2,3-dihydro-1H-indol-2-one], the Ki is below 50 nM.
`CCOc1ccccc1C1(N2CCN(c3ccncc3)CC2)C(=O)N(S(=O)(=O)c2ccc(N)cc2)c2ccc(C#N)cc21` (racemic) [Example 84, (±)-5-Cyano-1-(4-amino-benzenesulphonyl)-3-(2-ethoxyphenyl)-3-(4-pyridin-4-yl-piperazin-1-yl)-2,3-dihydro-1H-indol-2-one] gave a Ki of 50 to 500 nM.
The result for `COc1ccc(S(=O)(=O)N2C(=O)C(c3cc(C)ccc3OC)(N3CCN(c4ccncc4)CC3)c3cc(C#N)ccc32)c(OC)c1` (racemic) [Example 67, (±)-5-Cyano-1-(2,4-dimethoxy-benzenesulphonyl)-3-(2-methoxy-5-methylphenyl)-3-(4-pyridin-4-yl-piperazin-1-yl)-2,3-dihydro-1H-indol-2-one×trifluoroacetic acid] reads below 50 nM; that for `CCOc1cc(OC)ccc1C1(N2CCN(c3ccnc(C(C)C)c3)CC2)C(=O)N(S(=O)(=O)c2ccc(OC)cc2OC)c2ccc(C#N)cc21` (stereo not shown) [Example 111, 5-Cyano-1-(2,4-dimethoxybenzenesulphonyl)-3-(2-ethoxy-4-methoxyphenyl)-3-[4-(2-isopropylpyridin-4-yl)-piperazin-1-yl]-2,3-dihydro-1H-indol-2-one×trifluoroacetic acid], below 50 nM.
In turn, `COc1ccc(S(=O)(=O)N2C(=O)C(c3cc(OC)ccc3OC)(N3CCN(c4ccncc4)CC3)c3cc(C#N)ccc32)c(OC)c1` (stereo not shown) [Example 59, 5-Cyano-1-(2,4-dimethoxy-benzenesulphonyl)-3-(2,5-dimethoxyphenyl)-3-(4-pyridin-4-yl-piperazin-1-yl)-2,3-dihydro-1H-indol-2-one] returned an inhibition constant (Ki) below 50 nM.
